Where two headings read alike, the source gives them in different places.
Tests used:
Type in all cases: binding
[1] = target: T1, CIB1 and αIIb interaction (GST-CIB1 : F-αIIb peptide) (Homo sapiens, UniProt Q99828); experiment: FP assay, 384-well format (screen); design: 384-well SCREEN Efficacy (%): concentration or dose not given beside the values; conditions: F-αIIb peptide; for IC50: read-out: 384-well SCREEN IC50; for 384-well SCREEN Confirm?: YES/NO
T1 construct: made in house; host or cells: BL-21 plus RIL cells (E. coli)
T1 sequence (Q99828 1-191): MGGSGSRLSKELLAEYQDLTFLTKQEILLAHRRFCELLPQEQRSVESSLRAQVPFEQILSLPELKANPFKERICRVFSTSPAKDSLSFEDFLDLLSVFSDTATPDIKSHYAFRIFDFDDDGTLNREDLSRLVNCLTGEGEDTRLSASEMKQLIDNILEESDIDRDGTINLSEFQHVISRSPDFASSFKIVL

[2] = target: T2, GST-CIB1 : F-scrambled peptide (Homo sapiens, UniProt Q99828); experiment: FP scrambled-peptide counter screen, 384-well format; conditions: F-scrambled peptide; for IC50: read-out: 384-well COUNTERSCREEN IC50; for 384-well COUNTERSCREEN Confirm?: *: Curve in opposite direction
T2 construct: made in house; host or cells: BL-21 plus RIL cells (E. coli)
T2 sequence (Q99828 1-191): T1 sequence (Q99828 1-191)

[3] = target: T3, CIB1 and αIIb interaction (CIB1-GST : F-αIIb peptide) (Homo sapiens, UniProt Q99828); experiment: FP assay, 1536-well qHTS format (primary and confirmatory screen); conditions: for CONFIRMATORY SCREEN Confirm?: YES/NO call; for CONFIRMATORY SCREEN Efficacy (%) / Efficacy (%): negative = inhibition
T3 construct: made in house; host or cells: BL-21 plus RIL cells (E. coli)
T3 sequence (Q99828 1-191): T1 sequence (Q99828 1-191)

[4] = target: T2, GST-CIB1 : F-scrambled peptide; experiment: FP scrambled-peptide counter screen, 1536-well format; conditions: for COUNTERSCREEN Confirm?: YES/NO call
[5] = confirmatory screen, qHTS curve class, negative sign = inhibitory curve
[6] = confirmatory screen, read-out: CONFIRMATORY SCREEN IC50
[7] = qHTS primary screen hits, Table S2
[8] = qHTS primary screen hits, Table S2, negative sign = inhibitory curve
[9] = qHTS primary screen hits, Table S2, read-out: IC50
[10] = scrambled-peptide counterscreen
[11] = scrambled-peptide counterscreen, qHTS curve class
[12] = scrambled-peptide counterscreen, read-out: COUNTERSCREEN IC50
[13] = qHTS FP screen hits, Table S2, read-out: IC50
[14] = qHTS primary screen hits, Table S2, negative sign = inhibitory curve, several classes where COUNT > 1
[15] = qHTS FP screen hits, Table S2, one class per curve where COUNT > 1, negative sign = inhibitory curve

| SMILES | 384-well SCREEN Efficacy (%) [1] | IC50 [1] | 384-well COUNTERSCREEN Efficacy (%) [2] | IC50 [2] | CONFIRMATORY SCREEN Confirm? ([3]; confirmatory screen) | CONFIRMATORY SCREEN Curve Class [3, 5] | CONFIRMATORY SCREEN Efficacy (%) ([3]; confirmatory screen) | IC50 [3, 6] | Efficacy (%) [3, 7] | IC50 [3, 9] | COUNTERSCREEN Efficacy (%) [4, 10] | COUNTERSCREEN Confirm? [4, 10] | COUNTERSCREEN Curve Class [4, 11] | IC50 [4, 12] | 384-well SCREEN Confirm? [1] | 384-well COUNTERSCREEN Confirm? [2] | Efficacy (%) ([3]; qHTS FP screen hits, Table S2) | IC50 [3, 13] | further results |
| --- | --- | --- | --- | --- | --- | --- | --- | --- | --- | --- | --- | --- | --- | --- | --- | --- | --- | --- | --- |
| Cc1cc(Nc2c(Nc3nnc(-c4ccncc4)s3)c(=O)c2=O)ccc1Cl.O=C(O)C(F)(F)F [NCGC00241510-01] | 23% | > 120 µM | 64% | > 120 µM | YES | -1.4 | -51% | 11.2 µM | -35% | 39.8 µM | -33% | YES | -2.2 | 44.7 µM | – | – | – | – | Curve Class [3, 8]: -2.4 |
| Cc1cc(NS(=O)(=O)c2ccc(NCCc3ccc(Cl)c(Cl)c3)cc2)no1.O=C(O)C(F)(F)F [NCGC00244100-02] | 42% | 22.4 µM | 23% | > 120 µM | YES | -2.4 | -36% | – | – | – | 132% | YES | 3 | 39.8 µM | YES | YES | -22% | 22.4 µM | – |
| Cc1ccc(Cl)cc1NC(=O)c1nc[nH]c1C(=O)Nc1nc2ccccc2[nH]1 [NCGC00244259-01] | 48% | 11.2 µM | 48% | 15.8 µM | YES | -1.2 | -28% | 7.9 µM | -42% | 20 µM | -15% | YES | 4 | – | YES | – | – | – | Curve Class [3, 14]: -2.2 |
| O=C(Cc1ccc(Cl)c(Cl)c1)Nc1ccc(S(=O)(=O)Nc2ccon2)cc1.O=C(O)C(F)(F)F [NCGC00244858-03] | 35% | 8.9 µM | 43% | 25.1 µM | YES | -1.4 | -39% | 22.4 µM | -27% | 3.2 µM | -10% | YES | 4 | – | YES | – | – | – | Curve Class [3, 8]: -1.4 |
| CCOC(=O)c1nnc(NS(=O)(=O)c2ccc(NC(=O)Cc3ccc(Cl)c(Cl)c3)cc2)s1.O=C(O)C(F)(F)F [NCGC00248354-01] | 31% | 28.2 µM | 20% | > 120 µM | YES | -1.2 | -47% | 15.8 µM | – | – | 66% | YES | – | 44.7 µM | YES | YES | – | – | – |
| O=C(Cc1ccc(Cl)c(Cl)c1)Nc1ccc(S(=O)(=O)Nc2nnc(-c3ccccn3)s2)cc1.O=C(O)C(F)(F)F [NCGC00248355-01] | 44% | 11.2 µM | 38% | > 120 µM | YES | -2.1 | -132% | 35.5 µM | -50% | 25.1 µM | -73% | YES | -2.4 | 79.4 µM | YES | YES | – | – | Curve Class [3, 14]: -1.2 |
| O=C(CN(c1cccc(Br)c1)S(=O)(=O)c1ccccc1)NN=CC1=CC(=[N+]([O-])O)C=CC1=O.O=C(O)C(F)(F)F [NCGC00248455-01] | 40% | 11.2 µM | 52% | 15.8 µM | YES | -2.1 | -91% | 31.6 µM | -62% | 17.8 µM | -13% | YES | 4 | – | YES | – | – | – | Curve Class [3, 8]: -2.2 |
| N#Cc1cnc(NS(=O)(=O)c2ccc(NC(=O)Cc3ccc(Cl)c(Cl)c3)cc2)s1.O=C(O)C(F)(F)F [NCGC00250147-02] | 42% | 7.9 µM | 25% | > 120 µM | YES | -1.2 | -48% | 6.3 µM | – | – | 20% | YES | 4 | – | YES | YES | -40% | 5.6 µM | Curve Class [3, 15]: -1.2 |
| Cl.NC(CO)(CO)CCc1ccc(Sc2cccc(OCc3ccccc3)c2)cc1Cl [NCGC00250388-02] | 57% | 31.6 µM | 17% | > 120 µM | YES | -2.4 | -80% | 50.1 µM | -71% | 79.4 µM | -28% | YES | 4 | – | YES | YES | – | – | Curve Class [3, 14]: -2.2 |
| Cc1cc2c(C(C)C)c(O)c(O)c(C=O)c2c(O)c1-c1c(C)cc2c(C(C)C)c(O)c(O)c(C=O)c2c1O [NCGC00261532-01] | 90% | 2.7 µM | 60% | 33 µM | – | – | – | – | – | – | – | – | – | – | YES | YES | – | – | Efficacy (%) (confirmatory screen) ([3]; confirmatory screen): -70%; Confirm? (confirmatory screen) ([3]; confirmatory screen, YES/NO): YES; Curve Class (confirmatory screen) [3, 5]: -1.4; IC50 ([3]; confirmatory screen, read-out: IC50 [μM] (confirmatory screen)): 2.8 µM; Efficacy (%) (counterscreen) ([4]; counterscreen): -63%; Curve Class (counterscreen) ([4]; counterscreen, qHTS curve class, negative sign = inhibitory curve): -1.2; IC50 ([4]; counterscreen, read-out: IC50 [μM] (counterscreen)): 7.1 µM |
| Cc1ccc(S(=O)(=O)Nc2cnccc2C(=O)Nc2nc(-c3ccccc3)cs2)cc1.O=C(O)C(F)(F)F [NCGC00262386-01] | 29% | 16.1 µM | 42% | > 120 µM | YES | -1.2 | -53% | 14.1 µM | -42% | 27.4 µM | -51% | YES | -3 | 89.1 µM | YES | YES | – | – | – |
| COc1ccc(C(=O)Nc2nc(-c3ccccc3)cs2)c(NS(=O)(=O)c2ccc(C)cc2)c1.O=C(O)C(F)(F)F [NCGC00262390-01] | 24% | > 120 µM | 102% | 31.6 µM | YES | -1.2 | -60% | 11.2 µM | – | – | 92% | YES | – | 70.8 µM | – | – | -22% | 17.8 µM | – |
| O=c1sc2ccccc2c(O)c1C1CC(c2ccc(-c3ccc(Br)cc3)cc2)Cc2ccccc21 (stereo not shown) [NCGC00262959-01] | 87% | > 120 µM | 156% | 25.1 µM | YES | -1.4 | -49% | 7.1 µM | – | – | 118% | YES | – | 79.4 µM | – | – | -38% | 17.8 µM | Curve Class [3, 15]: -1.2 |

From paper PMC11249646, “Small-Molecule Disruptors of the Interaction between Calcium- and Integrin-Binding Protein 1 and Integrin αIIbβ3 as Novel Antiplatelet Agents” (ACS Pharmacology & Translational Science, 2024)
